According to patent publication US12286437B2, “Cardiac sarcomere inhibitors” (Cytokinetics, Inc., priority 2021, dated 2025):
Where two headings read alike, the source gives them in different places.

Assays:
[1] = Dog cassette dosing pharmacokinetics; assay type: in vivo, beagle dogs; conditions: male, beagle, plasma, IV
Description: Non-naïve male beagle dogs (8 months to 3 years of age, body weight 8-14 kg) sourced from Jiangsu Johnsen Bioresource CO. and/or Beijing Rixinkeji CO., LTD and/or Beijing Marshall Biotechnology CO., LTD were used in this study. All animals for IV administration had free access to food and water. The IV dose solution was prepared in 10% DMA/50% PG/40% HPβCD solution (40% w/v aqueous HPβCD) at a concentration of 0.2 mg/mL. Concentrations of IV dose was measured at the end of the study. PK parameters were calculated using the nominal dose values if the measured values were within 20% of the nominal values. Blood samples were collected by venipuncture of peripheral veins except the dosing vein at pre-dose, 5 15, 30 min, 1, 2, 4, 6, 8 and 24 h post-dose. Blood samples were centrifuged and resultant plasma was frozen for bioanalysis. Plasma samples were stored at −80° C. before analysis. Plasma samples were analyzed for compound concentrations using the LC/MS/MS method. Briefly, a 50 μL aliquot of each plasma sample was mixed with 100 μL of acetonitrile that contained an internal standard. The mixture was vortexed and centrifuged. Ten (10) μL of the resulting solution was injected onto a reverse-phase C18 column and the resultant peaks detected on a LC/MS/MS equipped with a turbo ionspray ionization source. Sample concentrations below the limit of quantification (BLQ) were treated as zero for PK calculations. PK parameters were estimated from individual animals using noncompartmental analysis of the concentration-time data (Phoenix WinNonLin software, version 64; Pharsight, Mountain View, CA). The elimination rate constant (k) was calculated as the absolute value of the slope of the linear regression of logarithm (log) of the concentration versus time for the last three data points of the concentration-time profiles. Apparent elimination half-life (t1/2) values were calculated as ln(2)/k. Area under the concentration-time curve (AUC) values were estimated using linear trapezoidal method. AUCt values were calculated from the dosing time to the last measurable concentration. AUC∞ values were calculated as the sum of the corresponding AUCt and the ratio of the last detectable concentration divided by k. Plasma clearance (CL) was calculated from Dose/AUC∞. Mean resident time extrapolated to infinity (MRT∞) was estimated by moment analysis. Vss was calculated from MRT∞×CL. Maximum concentration (Cmax) and time to reach Cmax (tmax) were recorded as observed. As this was a cross-over study, bioavailability was calculated dAUC∞,po/dAUC∞,iv×100% where dAUC was the dose normalized AUC value from the same animal given IV and PO dose. Data for compounds tested are provided in Table G. Compounds tested were prepared in accordance with the synthetic procedures described herein.

CYP3A4 = target: T1, CYP3A4 (Homo sapiens, UniProt P08684); assay: Time-dependent inhibition of CYP3A4 in human liver microsomes (testosterone and midazolam probes); assay type: in vitro ADME; conditions: for (% Activity NADPH T0)/(% Activity NADPH T30): fold change; for activity at 30 min, 25 µM / activity at 30 min, 50 µM: human, after 30 minutes incubation, read-out: % Activity NADPH T30; for activity at 30 min, 25 µM / activity at 30 min, 50 µM / activity at 0 min, 25 µM / activity at 0 min, 50 µM: pooled human liver microsomes; for activity at 0 min, 25 µM / activity at 0 min, 50 µM: human liver microsomes, time zero, read-out: % Activity NADPH T0
T1 construct: Pooled human microsomes and selective CYP probe substrates were used; from tissue; host or cells: pooled human liver microsomes
T1 sequence (P08684 whole entry): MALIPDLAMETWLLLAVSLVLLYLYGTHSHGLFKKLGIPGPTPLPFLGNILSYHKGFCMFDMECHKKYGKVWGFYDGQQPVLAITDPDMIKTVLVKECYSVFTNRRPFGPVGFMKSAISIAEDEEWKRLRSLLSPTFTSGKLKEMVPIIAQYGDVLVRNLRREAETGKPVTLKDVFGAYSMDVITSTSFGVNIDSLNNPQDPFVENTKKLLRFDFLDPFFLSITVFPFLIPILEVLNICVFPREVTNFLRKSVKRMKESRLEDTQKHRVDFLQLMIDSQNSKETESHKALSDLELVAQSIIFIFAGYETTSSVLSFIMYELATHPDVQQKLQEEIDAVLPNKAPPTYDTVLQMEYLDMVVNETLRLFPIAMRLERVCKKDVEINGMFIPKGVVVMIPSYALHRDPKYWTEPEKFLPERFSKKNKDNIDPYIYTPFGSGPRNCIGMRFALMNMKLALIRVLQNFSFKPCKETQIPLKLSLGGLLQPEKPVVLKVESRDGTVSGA
Description: An assessment of the time-dependent Inhibitory Potential of the test compounds against Principal Human Cytochrome P450 Isozymes using Human Liver Microsomes was also carried out using standard methods (Grimm et al, Drug Metab. Dispos., July; 37(7):1355-70. doi: 10.1124/dmd.109.026716, 2009). Pooled human microsomes and selective CYP probe substrates were used for in vitro assessment of test compounds at 25 and 50 μM as time-dependent inhibitors of […] human hepatic cytochrome P450 isozymes (CYP1A2, 2B6, 2C9, 2C19, 2D6, and 3A4). LC-MS/MS was used to quantify metabolite formation. The inhibition of each P450 enzyme in human liver microsomes was measured as the percentage decrease in the activity of marker metabolite formation as measured by LC-MS/MS compared to non-inhibited controls (=100% activity) at time zero and after 30 minutes incubation. The occurrence of any time dependent inhibition was then expressed as the fold change in enzyme activity at time zero relative to the activity after 30 minutes incubation.

[2] = Projected single-dose CL and Vss values in humans (allometric scaling of mouse, rat, dog, monkey IV PK); conditions: human, projected by allometric scaling from single-dose IV PK
Description: Allometric scaling for the prediction of human Clearance and Volume of Distribution was based on interspecies simple allometric scaling of mouse, rat, dog, and cynomolgus monkey intravenous pharmacokinetic parameters (Boxenbaum, J Pharmacokinet Biopharm 10:201-27, 1982). Prediction of human CL was performed by extrapolating pre-clinical species' plasma intravenous clearance. The ‘rule of exponents’ (Mahmood & Balian, Life Sci 59:579-85, 1996) was examined in this prediction, where it has been proposed that, when the exponent of simple allometry lies between […] and 0.99, a correction factor based on Maximum Life Span (MLP) of this species can be applied and, when the exponent of simple allometry is greater than 1.0, a correction factor based on Brain Weight (BrW) can be applied, or a protein binding correction can be applied when available. In a similar manner, simple allometric scaling was employed to predict human Volume of Distribution. This method has been used successfully for varied drugs (Ward & Smith, Drug Metab Dispos 32:612-19, 2004; McGinnity et al., Curr Drug Metab 8:463-79, 2007).

[3] = test system: Rat Cardiac Contractility; assay: Echocardiography assessment of acute pharmacodynamic effect in rat cardiac contractility (fractional shortening); assay type: in vivo, Sprague Dawley rats; conditions: oral gavage, plasma concentration vs fractional shortening, 1 and 4 h post-dose
Description: Assessment of in vivo cardiac function by echocardiography was performed in male Sprague Dawley rats under isoflurane (1-3%) anesthesia. 2-D M-mode images of the left ventricle were acquired in the parasternal long-axis view before, during, and after administration of compounds. In vivo fractional shortening was determined by M-mode image analysis with the following calculation: ((End diastolic diameter−end systolic diameter)[…] end diastolic diameter×100). Three pre-dose baseline M-Mode images were taken at 1-minute intervals prior to compound administration. Compounds were formulated in a 0.5% hydroxypropyl methylcellulose 2910 (HPMC 2910): 0.1% Tween 80 suspension and delivered as a single dose (5 mL/kg) by oral gavage. At one and four hours post-dose, rats were lightly anesthetized for M-mode echocardiography measurement. Concurrent with echocardiography measurements, blood samples were taken to determine the corresponding compound plasma concentrations. The resulting plasma concentrations were used to estimate the IC50 and IC10 values, which is the concentration at which fractional shortening is 50% and 10% of the pre-dose baseline contractility, respectively.

[4] = CYP3A4-M (midazolam probe substrate), 25 μM
[5] = CYP3A4-M (midazolam probe substrate), 50 μM
[6] = CYP3A4-T (testosterone probe substrate), 25 μM
[7] = CYP3A4-T (testosterone probe substrate), 50 μM

CC(C)N1CC(=O)N(Cc2ccc(C(F)(F)F)cc2)C2(CN(c3cccnn3)C2)C1=O [Compound 13, 8-isopropyl-2-(pyridazin-3-yl)-5-(4-(trifluoromethyl)benzyl)-2,5,8-triazaspiro[3.5]nonane-6,9-dione]
clearance [1]: 11.5 mL/min/kg | Vd ([1]; read-out: Vss): 3.72 L/kg | half-life ([1]; read-out: t½ (converted)): 4.16 h | (% Activity NADPH T0)/(% Activity NADPH T30) (CYP3A4; [4]): 1.0 | (% Activity NADPH T0)/(% Activity NADPH T30) (CYP3A4; [5]): 0.7 | (% Activity NADPH T0)/(% Activity NADPH T30) (CYP3A4; [6]): 1.0 | (% Activity NADPH T0)/(% Activity NADPH T30) (CYP3A4; [7]): 0.9 | activity at 30 min, 25 µM (CYP3A4; [4]): 88% | activity at 30 min, 50 µM (CYP3A4; [5]): 97% | activity at 30 min, 25 µM (CYP3A4; [6]): 77% | activity at 30 min, 50 µM (CYP3A4; [7]): 65% | activity at 0 min, 25 µM (CYP3A4; [4]): 87% | activity at 0 min, 50 µM (CYP3A4; [5]): 72% | activity at 0 min, 25 µM (CYP3A4; [6]): 74% | activity at 0 min, 50 µM (CYP3A4; [7]): 56% | Projected CL [2]: 4.66 mL/min/kg | Projected Vss [2]: 3.43 L/kg | Projected t½ [2]: 8.51 h | IC10 [3]: 0.317 µM | IC50 [3]: 1.17 µM
